How the values were obtained:
M2 (h) = target: T1, M2 (h) (Homo sapiens, UniProt P08172); assay: Binding to membrane receptors of central neuromediators of human origin: M2; details: M2 (h) receptor binding
T1 sequence (P08172 1-466): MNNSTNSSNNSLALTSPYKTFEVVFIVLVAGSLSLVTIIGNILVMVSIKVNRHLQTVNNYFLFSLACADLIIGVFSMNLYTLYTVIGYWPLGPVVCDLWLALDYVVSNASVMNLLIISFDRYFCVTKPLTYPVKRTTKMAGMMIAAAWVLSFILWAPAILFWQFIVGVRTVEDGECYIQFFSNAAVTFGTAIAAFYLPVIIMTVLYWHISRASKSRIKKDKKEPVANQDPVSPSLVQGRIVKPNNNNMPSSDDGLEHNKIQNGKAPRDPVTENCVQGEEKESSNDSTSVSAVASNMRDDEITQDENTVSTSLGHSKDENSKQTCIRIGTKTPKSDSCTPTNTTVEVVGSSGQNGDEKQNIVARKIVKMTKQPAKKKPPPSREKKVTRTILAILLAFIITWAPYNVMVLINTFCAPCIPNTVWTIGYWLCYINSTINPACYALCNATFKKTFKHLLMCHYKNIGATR
Description: (§1) The results of this study of binding to these various membrane receptors of central neuromediators of human origin are presented in Table 1.

5-HT2A (h) = 5-HT2A (h) (Homo sapiens, UniProt P28223); assay: Binding to membrane receptors of central neuromediators of human origin: 5-HT2A; details: 5-HT2A (h) receptor binding
5-HT2c (h) = 5-HT2c (h) (Homo sapiens, UniProt P28335); assay: Binding to membrane receptors of central neuromediators of human origin: 5-HT2c
M3 (h) = M3 (h) (Homo sapiens, UniProt P20309); assay: Binding to membrane receptors of central neuromediators of human origin: M3; details: M3 (h) receptor binding
Description: as §1

D2 (h) = D2 (h) (Homo sapiens, UniProt P14416); assay: Binding to membrane receptors of central neuromediators of human origin: D2; details: D2 (h) receptor binding
Description: as §1

H1 (h) = H1 (h) (Homo sapiens, UniProt P35367); assay: Binding to membrane receptors of central neuromediators of human origin: H1; details: H1 (h) receptor binding
Description: as §1

mice = assay: Actimetry test (sedative activity, spontaneous motor activity); format: in vivo; details: spontaneous motor activity recorded for 10 minutes
Experimental: The sedative activity of the product was determined with mice according to an actimetry test. The actimeter is a device composed of 6 transparent cages in which the animals are individually placed. Photoelectric cells make it possible to detect movements in the cages (by cutting the beam). The spontaneous motor activity is recorded for 10 minutes. The results are expressed in the mean form and in the form of percentage of activity with respect to the control batch. The results are expressed in Table 2.

5-HT1A (h) = target: T2, 5-HT1A (h) (Homo sapiens, UniProt P08908); assay: Binding to membrane receptors of central neuromediators of human origin: 5-HT1A; details: 5-HT1A (h) receptor binding
T2 sequence (P08908 1-422): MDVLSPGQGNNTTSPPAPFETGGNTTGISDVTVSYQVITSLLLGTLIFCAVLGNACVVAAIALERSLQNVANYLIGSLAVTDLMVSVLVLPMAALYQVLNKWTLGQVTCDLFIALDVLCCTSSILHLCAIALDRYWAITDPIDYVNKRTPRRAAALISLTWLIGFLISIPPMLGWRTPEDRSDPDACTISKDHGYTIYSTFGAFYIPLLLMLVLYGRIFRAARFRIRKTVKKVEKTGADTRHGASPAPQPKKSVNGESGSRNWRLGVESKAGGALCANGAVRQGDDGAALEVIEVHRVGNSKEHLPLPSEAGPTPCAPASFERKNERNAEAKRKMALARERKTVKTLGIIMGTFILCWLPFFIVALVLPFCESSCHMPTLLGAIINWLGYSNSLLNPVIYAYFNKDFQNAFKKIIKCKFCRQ
Description: as §1

M1 (h) = target: T3, M1 (h) (Homo sapiens, UniProt P11229); assay: Binding to membrane receptors of central neuromediators of human origin: M1; details: M1 (h) receptor binding
T3 sequence (P11229 1-460): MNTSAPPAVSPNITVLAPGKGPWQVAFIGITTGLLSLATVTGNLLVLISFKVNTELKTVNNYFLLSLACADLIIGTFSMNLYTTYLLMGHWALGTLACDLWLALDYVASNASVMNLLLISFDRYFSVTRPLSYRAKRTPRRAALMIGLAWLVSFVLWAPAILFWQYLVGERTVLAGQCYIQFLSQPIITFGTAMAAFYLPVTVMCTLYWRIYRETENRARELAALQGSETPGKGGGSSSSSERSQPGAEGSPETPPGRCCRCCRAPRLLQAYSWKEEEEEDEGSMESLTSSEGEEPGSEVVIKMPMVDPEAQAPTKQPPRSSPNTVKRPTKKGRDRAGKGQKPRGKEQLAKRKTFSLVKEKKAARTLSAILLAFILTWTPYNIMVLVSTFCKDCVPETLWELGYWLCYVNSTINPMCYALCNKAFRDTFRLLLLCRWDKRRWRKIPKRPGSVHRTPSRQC
Description: as §1

5-HT2c (h), sequence (P28335 33-458): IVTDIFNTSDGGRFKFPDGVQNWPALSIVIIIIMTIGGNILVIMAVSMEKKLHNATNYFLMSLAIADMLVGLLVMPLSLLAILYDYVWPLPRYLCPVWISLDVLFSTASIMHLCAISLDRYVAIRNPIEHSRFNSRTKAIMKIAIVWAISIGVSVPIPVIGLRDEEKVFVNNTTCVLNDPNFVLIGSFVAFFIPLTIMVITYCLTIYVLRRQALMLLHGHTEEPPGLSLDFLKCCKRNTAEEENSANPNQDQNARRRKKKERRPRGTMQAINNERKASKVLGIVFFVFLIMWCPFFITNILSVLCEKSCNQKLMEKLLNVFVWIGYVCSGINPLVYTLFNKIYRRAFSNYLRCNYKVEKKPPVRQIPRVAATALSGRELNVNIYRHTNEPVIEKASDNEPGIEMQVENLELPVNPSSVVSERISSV
5-HT2A (h), sequence (P28223 whole entry): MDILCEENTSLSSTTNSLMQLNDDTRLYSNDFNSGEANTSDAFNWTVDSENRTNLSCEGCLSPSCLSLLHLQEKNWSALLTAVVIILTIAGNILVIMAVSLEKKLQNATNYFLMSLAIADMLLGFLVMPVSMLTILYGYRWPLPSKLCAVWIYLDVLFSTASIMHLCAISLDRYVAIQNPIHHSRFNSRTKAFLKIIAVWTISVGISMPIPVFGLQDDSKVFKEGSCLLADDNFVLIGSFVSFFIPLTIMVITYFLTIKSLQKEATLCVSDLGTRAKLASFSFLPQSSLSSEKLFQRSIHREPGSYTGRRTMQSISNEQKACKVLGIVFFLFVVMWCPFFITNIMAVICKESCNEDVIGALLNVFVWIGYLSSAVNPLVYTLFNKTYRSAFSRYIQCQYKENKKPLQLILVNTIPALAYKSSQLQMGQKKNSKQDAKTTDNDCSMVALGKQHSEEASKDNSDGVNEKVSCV
D2 (h), sequence (P14416 whole entry): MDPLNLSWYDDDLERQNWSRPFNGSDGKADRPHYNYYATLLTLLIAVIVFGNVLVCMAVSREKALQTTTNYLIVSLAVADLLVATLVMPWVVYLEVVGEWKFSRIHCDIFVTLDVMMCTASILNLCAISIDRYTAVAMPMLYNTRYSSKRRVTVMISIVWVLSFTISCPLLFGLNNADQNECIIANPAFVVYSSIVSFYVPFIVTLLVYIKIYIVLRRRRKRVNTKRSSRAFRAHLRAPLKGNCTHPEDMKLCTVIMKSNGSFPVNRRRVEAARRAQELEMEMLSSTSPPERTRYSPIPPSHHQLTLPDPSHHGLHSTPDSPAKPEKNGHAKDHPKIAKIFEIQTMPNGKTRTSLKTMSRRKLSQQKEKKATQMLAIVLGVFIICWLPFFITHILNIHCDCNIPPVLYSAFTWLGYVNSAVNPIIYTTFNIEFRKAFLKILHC
H1 (h), sequence (P35367 whole entry): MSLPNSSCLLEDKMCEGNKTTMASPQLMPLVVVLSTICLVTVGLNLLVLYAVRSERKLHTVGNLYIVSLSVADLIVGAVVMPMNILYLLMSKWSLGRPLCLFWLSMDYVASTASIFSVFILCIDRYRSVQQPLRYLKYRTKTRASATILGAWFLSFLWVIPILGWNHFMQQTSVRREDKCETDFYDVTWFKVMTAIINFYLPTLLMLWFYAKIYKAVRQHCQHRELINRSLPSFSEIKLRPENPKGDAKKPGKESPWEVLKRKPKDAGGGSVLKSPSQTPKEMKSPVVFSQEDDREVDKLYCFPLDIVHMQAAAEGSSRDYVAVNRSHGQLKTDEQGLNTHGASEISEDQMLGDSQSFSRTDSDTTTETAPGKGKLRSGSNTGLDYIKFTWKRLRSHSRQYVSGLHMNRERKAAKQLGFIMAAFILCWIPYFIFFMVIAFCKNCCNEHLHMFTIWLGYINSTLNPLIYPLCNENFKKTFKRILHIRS
M3 (h), sequence (P20309 whole entry): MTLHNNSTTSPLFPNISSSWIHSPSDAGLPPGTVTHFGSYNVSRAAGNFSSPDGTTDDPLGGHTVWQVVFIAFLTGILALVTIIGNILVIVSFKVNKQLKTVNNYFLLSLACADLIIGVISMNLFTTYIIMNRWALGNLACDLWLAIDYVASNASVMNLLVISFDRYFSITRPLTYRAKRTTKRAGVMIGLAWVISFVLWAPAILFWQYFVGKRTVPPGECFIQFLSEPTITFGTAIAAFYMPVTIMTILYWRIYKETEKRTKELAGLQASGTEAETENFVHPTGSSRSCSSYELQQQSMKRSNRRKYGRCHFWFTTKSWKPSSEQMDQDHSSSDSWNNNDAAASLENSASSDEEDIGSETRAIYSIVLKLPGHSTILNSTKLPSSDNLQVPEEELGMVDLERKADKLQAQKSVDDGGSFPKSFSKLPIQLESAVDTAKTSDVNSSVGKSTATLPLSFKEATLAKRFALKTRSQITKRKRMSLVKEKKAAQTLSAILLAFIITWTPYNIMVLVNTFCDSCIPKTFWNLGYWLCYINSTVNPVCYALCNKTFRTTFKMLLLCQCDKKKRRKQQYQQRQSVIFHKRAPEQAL

Structure (SMILES): CNCC(C)CN1c2ccccc2Sc2ccc(C#N)cc21 (stereo not drawn) [2-cyano-10-(2-methyl-3-(methylamino)propyl)phenothiazine]
- IC50 (M2 (h)): 368 nM
- Ki (M2 (h)): 251 nM
- IC50 (5-HT2A (h)): 9 nM
- Ki (5-HT2A (h)): 1.5 nM
- IC50 (5-HT2c (h); 5-HT2c (h) receptor binding): 23 nM
- Ki (5-HT2c (h); 5-HT2c (h) receptor binding): 8.5 nM
- affinity for 5-HT2c receptors (5-HT2c (h); in words): high affinity
- IC50 (M3 (h)): 5490 nM
- Ki (M3 (h)): 3920 nM
- IC50 (D2 (h)): 31 nM
- Ki (D2 (h)): 12 nM
- IC50 (H1 (h)): 22 nM
- Ki (H1 (h)): 9.3 nM
- % of activity/control (mice; dose 0.75 mg/kg): 61%
- % of activity/control (mice; dose 1 mg/kg): 63%
- % of activity/control (mice; dose 2 mg/kg): 26%
- % of activity/control (mice; dose 4 mg/kg): 9%
- IC50 (5-HT1A (h)): 460 nM
- Ki (5-HT1A (h)): 184 nM
- IC50 (M1 (h)): 21 nM
- Ki (M1 (h)): 17 nM

From US7538106B2, “Application of 2-cyano-10- (2-methyl-3- (methylamino)- propyl) phenothiazine or a pharmaceutically acceptable salt as medicament” (Aventis Pharmaceuticals Inc., priority 2003, dated 2009)
